From patent publication US20080145313A1, “Compositions and Methods for the Treatment and Prevention of Neoplastic Disorders” (Genesis Research & Development Corporation Limited, priority 2006, published 2008)

Assays:
Format in all cases: cell-based, human
SK-Mel-5 cells = assay: Growth inhibition of siRNA-transfected SK-Mel-5 cells, SYBR Green I DNA content; conditions: 10 nM siRNA; standardized against control siRNA
Experimental: A549 cells (human lung cancer cell line; ATCC No. CCL-185), SK-MeI-5 cells (human melanoma cell line; ATCC No. HTB-70), MCF-7 cells (human adenocarcinoma cell line; ATCC No. HTB-22), HCT-116 cells (colorectal carcinoma; ATCC CCL-247) and HCT-116 p53 null cells (derived from ATCC No. CCL-247; Bunz et al., Science 282:1497-1501, 1998) were cultured in RPMI 1640 medium with 10% v/v heat-inactivated fetal calf serum (FCS). Cells were seeded at a density of 5×10^4 cells/cm^2 in multi-well tissue culture plates. Sequences of Stealth™ siRNA duplexes (Invitrogen) targeting human ribonucleotide reductase subunit 1 (SEQ ID NO: 22) and subunit 2 (SEQ ID NO; 38) are given in SEQ ID NO: 4830-4832 (DNA), and SEQ ID NO: 5136-5138 (RNA) for RRM1, and SEQ ID NO: 5306-5308 (DNA), and SEQ ID NO: 5303-5305 (RNA) for RRM2. siRNAs were transfected at different concentrations into cells using Lipofectamine™ RNAiMAX transfection reagent (Invitrogen). Non-specific siRNA (SEQ ID NO: 4804 and 4805 (DNA), and SEQ ID NO: 5301 and 5302 (RNA)) were used as controls. The cellular DNA content was measured using a SYBR Green I-based fluorometric assay at 24, 48, 72 and 96 hours after transfection (120 hours for the MCF-7 cells), as follows. At the indicated time points following reverse transfection, cells were harvested and frozen at −80° C. overnight. Cells were thawed and cell lysis buffer (phosphate-buffered saline (PBS) containing 1% Triton X-100, pH 7) and SYBR Green I (1:10^5 V/V; Invitrogen) was added to the wells and incubated overnight in the dark at 4° C.
(§1) The following day, cell lysates were mixed thoroughly, and DNA fluorescence was measured with a Wallac Victor^2 plate reader (Turku, Finland) set at an excitation frequency of 485 nm and measuring emission at 535 nm.
siRNA-mediated inhibition of cancer cell growth using siRNA targeting the YBX1 gene (SEQ ID NO: 92) was determined as follows. SK-MeI-5 cells were cultured in RPMI 1640 medium with 10% v/v heat-inactivated fetal calf serum. Cells were cultured as described above and reverse transfected with 0.1, 1.0, 10 and 40 nM (final concentration) of a pool of YBX1-targeting siRNAs (SEQ ID NO: 4982 and 4983 (DNA), and SEQ ID NO: 5277 and 5278 (RNA); referred to as 994 and 995 in FIG. 19) or a non-specific control (SEQ ID NO: 4804 (DNA), and SEQ ID NO: 5301 (RNA); referred to as Stealth 81 ctrl in FIG. 19), and cell growth determined after 120 h by measuring DNA fluorescence with a Wallac Victor^2 plate reader (Turku, Finland) set at an excitation frequency of 485 nm and measuring emission at 535 nm. Growth inhibition by the siRNA pool was standardized against the inhibition obtained with the control siRNAs.
siRNA-mediated RNAi was also determined on a panel of different cell lines. A549, SK-MeI-5, wt HCT-116, HCT-116−/−p53 and MCF-7 cells were transfected with 10 nM siRNAs targeting YBX-1 and growth inhibition determined as described above. The YBX1 siRNAs are given in SEQ ID NO: 4981 to 4985 (DNA) and SEQ ID NO: 5276-5280 (RNA). A non-specific siRNA (SEQ ID NO: 4804 (DNA) and SEQ ID NO: 5301 (RNA)) was used as control. Growth inhibition by the siRNAs, given in Table 14, was standardized against the inhibition obtained with the control siRNA.

YBX1 (p47) and p37 = assay: YBX1 protein level by Western blotting in A549 cells; conditions: 10 nM siRNA; 24 h post-transfection; compared with control siRNA
Experimental: Cell lysates were prepared from A549 cells 24 h post-transfection with 10 nM YBX1-specific siRNA (SEQ ID NO: 4982 (DNA), and SEQ ID NO: 5277 (RNA) was labeled 94; SEQ ID NO: 4983 (DNA), and SEQ ID NO: 5278 (RNA) was labeled 95) or control siRNA (SEQ ID NO: 4804 (DNA), and SEQ ID NO: 5301 (RNA); labeled 81). Following Western blotting onto Immobilon-P PVDF filer (Millipore, Bedford Mass.), membranes were probed with a goat anti-human polyclonal antibody specific for YBX1 (AbCam plc, Cambridge, UK), at a concentration of […]. HRP-conjugated donkey anti-goat IgG ([…]; Santa Cruz) was used as a secondary antibody, and signal was detected with an ECL Plus Western blotting Detection System (GE Healthcare, UK) using a Typhoon Scanner (Molecular Dynamics, GE Healthcare, UK).

MCF-7 cells = assay: Growth inhibition of siRNA-transfected MCF-7 cells, SYBR Green I DNA content; conditions: 10 nM siRNA; standardized against control siRNA
Experimental: A549 cells (human lung cancer cell line; ATCC No. CCL-185), SK-MeI-5 cells (human melanoma cell line; ATCC No. HTB-70), MCF-7 cells (human adenocarcinoma cell line; ATCC No. HTB-22), HCT-116 cells (colorectal carcinoma; ATCC CCL-247) and HCT-116 p53 null cells (derived from ATCC No. CCL-247; Bunz et al., Science 282:1497-1501, 1998) were cultured in RPMI 1640 medium with 10% v/v heat-inactivated fetal calf serum (FCS). Cells were seeded at a density of 5×10^4 cells/cm^2 in multi-well tissue culture plates. […] The cellular DNA content was measured using a SYBR Green I-based fluorometric assay at 24, 48, 72 and 96 hours after transfection (120 hours for the MCF-7 cells), as follows. […]
as §1
siRNA-mediated RNAi was also determined on a panel of different cell lines. A549, SK-MeI-5, wt HCT-116, HCT-116−/−p53 and MCF-7 cells were transfected with 10 nM siRNAs targeting YBX-1 and growth inhibition determined as described above. […]

“SEQ ID NO: 4985: siRNA targeting YBX1 (chain 1 CAGCCTAGAGAGGACGGCAATGAAG; chain 2 CAGCCUAGAGAGGACGGCAAUGAAG; chemistry not given here; one strand in two spellings)” was tested. Which “growth inhibition, SK-Mel-5 cells” value (SK-Mel-5 cells) did it give?
Its value is “++ (At least 50% inhibition)”.

How did the “growth inhibition, SK-Mel-5 cells” value (SK-Mel-5 cells) turn out when “SEQ ID NO: 4984: siRNA targeting YBX1 (chain 1 CAAGGTAGACCAGTGAGGCAGAATA; chain 2 CAAGGUAGACCAGUGAGGCAGAAUA; chemistry not given here; one strand in two spellings)” was run?
The value was “+++ (At least 70% inhibition)”.

For “SEQ ID NO: 4983: siRNA targeting YBX1 (chain 1 TACTGTGGTCGACGCCCATAGGGTC; chain 2 UACUGUGGUCGACGCCCAUAGGGUC; chemistry not given here; one strand in two spellings)”, which “YBX1 (p47) and p37 protein levels” value (YBX1 (p47) and p37) is on record?
Its value is “reduction in YBX1 (p47) and p37 protein levels”.

And the “growth inhibition, SK-Mel-5 cells” value (SK-Mel-5 cells)?
The value was “++ (At least 50% inhibition)”.

Which “YBX1 (p47) and p37 protein levels” value (YBX1 (p47) and p37) does the source give for “SEQ ID NO: 4982: siRNA targeting YBX1 (chain 1 TTTGCTGGTAATTGCGTGGAGGACC; chain 2 UUUGCUGGUAAUUGCGUGGAGGACC; chemistry not given here; one strand in two spellings)” here?
The value was “reduction in YBX1 (p47) and p37 protein levels”.

What about the “growth inhibition, SK-Mel-5 cells” value (SK-Mel-5 cells) of the same substance?
Its value is “+++ (At least 70% inhibition)”.

And the “growth inhibition, MCF7 cells” value (MCF-7 cells)?
Its value is “++ (At least 50% inhibition)”.
